Source: ChEMBL document CHEMBL3217679, “Synthesis and biological activity profile of novel 2-cinnamylidene-1,3-diones related to coruscanone A: promising new antileishmanial agents” (Medchemcomm, 2012)
The source made the active and inactive calls. The rule behind the calls is not given here.

Tests used:
Plasmodium falciparum [1] = assay: Antiparasitic activity against chloroquine-sensitive Plasmodium falciparum D6 assessed as growth inhibition at 16 uM after 48 hrs by pLDH assay; assay type: functional, organism-based
Nakaseomyces glabratus = assay: Antifungal activity against Candida glabrata ATCC 90030 assessed as growth inhibition after 46 to 50 hrs by modified CLSI method; assay type: functional, organism-based
Candida albicans = assay: Antifungal activity against Candida albicans ATCC 90028 assessed as growth inhibition after 46 to 50 hrs by modified CLSI method; assay type: functional, organism-based
Pichia kudriavzevii = assay: Antifungal activity against Candida krusei ATCC 6258 assessed as growth inhibition after 46 to 50 hrs by modified CLSI method; assay type: functional, organism-based
Leishmania donovani = assay: Antiparasitic activity against Leishmania donovani S1 promastigotes assessed as growth inhibition after 72 hrs by alamar blue assay; assay type: functional, organism-based; conditions: S1, 72 h
Cryptococcus neoformans = assay: Antifungal activity against Cryptococcus neoformans ATCC 90113 assessed as growth inhibition after 70 to 74 hrs by modified CLSI method; assay type: functional, organism-based
Aspergillus fumigatus = assay: Antifungal activity against Aspergillus fumigatus ATCC 90906 assessed as growth inhibition after 46 to 50 hrs by alamar blue assay; assay type: functional, organism-based
Plasmodium falciparum [2] = assay: Antiparasitic activity against chloroquine-resistant Plasmodium falciparum W2 assessed as growth inhibition at 16 uM after 48 hrs by pLDH assay; assay type: functional, organism-based
[3] = Cytotoxicity against African green monkey Vero cells by neutral red assay; assay type: cell-based; conditions: chlorocebus sabaeus, read-out: TC50 (the source's name)

SMILES	growth inhibition (GI) (Plasmodium falciparum [1])	IC50 (Nakaseomyces glabratus) [µM]	growth inhibition (GI) (Candida albicans)	IC50 (Pichia kudriavzevii) [µM]	IC50 (Leishmania donovani) [µM]	IC90 (Leishmania donovani) [µM]	IC50 (Cryptococcus neoformans) [µM]	growth inhibition (GI) (Aspergillus fumigatus)	growth inhibition (GI) (Plasmodium falciparum [2])	CC50 [3] [µM]
COc1ccc(/C=C/C=C(C(C)=O)C(C)=O)cc1	inactive	> 60	inactive	> 60	38.5	> 100	> 60	inactive	inactive	> 19.5
CC(=O)/C(=C\C=C\c1ccccc1)C(=O)OC(C)(C)C	inactive	> 60	inactive	> 60	46.6	99.2	> 60	inactive	inactive	> 17.5
O=C1CCC(=O)C1=C/C=C/c1ccc(Br)cc1	inactive	> 60	inactive	> 60	8.58	14.1	26.9	inactive	inactive	> 16.3
COc1ccc(/C=C/C=C2C(=O)CCCC2=O)cc1	inactive	56	inactive	> 60	19.5	91.7	44.7	inactive	inactive	> 18.6
CC1(C)CC(=O)C(=CC=C(c2ccccc2)c2ccccc2)C(=O)C1	inactive	> 60	inactive	> 60	9.38	26.6	23.6	inactive	inactive	> 14.4
O=C1CCC(=O)C1=C/C=C/c1ccccc1	inactive	> 60	inactive	42.6	2.16	3.58	11.9	inactive	inactive	> 22.4
COc1ccc(/C=C/C=C2C(=O)CC(C)(C)CC2=O)cc1	inactive	> 60	inactive	> 60	30.6	68.9	38.2	inactive	inactive	> 16.7
O=C1CCCC(=O)C1=CC=C(c1ccccc1)c1ccccc1	inactive	> 60	inactive	> 60	10.2	26.1	14.5	inactive	inactive	> 15.7
C/C=C/C=C/C=C1C(=O)CCCC1=O	inactive	> 60	inactive	> 60	56.8	> 100	> 60	inactive	inactive	> 25
COc1ccc(/C=C/C=C2C(=O)CCC2=O)cc1	–	35	inactive	24.1	7.01	19.8	13.4	inactive	–	> 19.6
N=C(N)c1ccc(OCCCCCOc2ccc(C(=N)N)cc2)cc1 [PENTAMIDINE]	–	–	inactive	–	3.82	12.4	–	–	–	–
C/C=C/C=C/C=C1C(=O)CC(C)(C)CC1=O	inactive	> 60	inactive	> 60	45.8	> 100	> 60	inactive	inactive	> 21.8
CC1(C)CCC(=O)/C(=C\C=C\c2ccccc2)C1=O	inactive	> 60	inactive	> 60	11.8	20.1	19.9	inactive	inactive	> 18.7
COC(/C=C/c1ccccc1)=C1\C(=O)C=C(C)C1=O [CORUSCANONE A]	–	–	–	–	–	–	–	–	–	19.3
COc1ccc(/C=C/C=C2C(=O)CC(c3ccccc3)CC2=O)cc1 (centres undefined)	inactive	> 60	inactive	> 60	7.52	14.7	> 60	inactive	inactive	> 14.3
CC1(C)CC(=O)C(=C/C=C/c2ccccc2)C(=O)C1	inactive	35.3	inactive	> 60	20.1	27.5	19	inactive	inactive	> 18.7
C[C@@H]1[C@H](O)[C@@H](C)/C=C/C=C/C=C/C=C/C=C/C=C/C=C/[C@H](O[C@@H]2O[C@H](C)[C@@H](O)[C@H](N)[C@@H]2O)C[C@@H]2O[C@](O)(C[C@@H](O)C[C@@H](O)[C@H](O)CC[C@@H](O)C[C@@H](O)CC(=O)O[C@H]1C)C[C@H](O)[C@H]2C(=O)O [AMPHOTERICIN B]	–	0.28	inactive	0.78	0.31	1.09	0.35	–	–	7.6
CC(=O)C(=C/C=C/c1ccccc1)C(C)=O	inactive	> 60	inactive	> 60	19.1	52.3	> 60	inactive	inactive	> 22.2
CC1(C)CC(=O)C(=C/C=C/c2ccc(Br)cc2)C(=O)C1	inactive	> 60	inactive	> 60	9.6	18.6	24.7	inactive	inactive	> 14.3
CC(=O)C(=CC=C(c1ccccc1)c1ccccc1)C(C)=O	inactive	> 60	inactive	> 60	9.29	66.1	35.3	inactive	inactive	> 16.4
CC1(C)CC(=O)C(=C/C=C/c2ccc(F)cc2)C(=O)C1	inactive	35.6	inactive	> 60	10.7	25	16.6	inactive	inactive	> 17.5
CC(=O)C(=C/C=C/c1ccc(Br)cc1)C(C)=O	inactive	> 60	inactive	> 60	9.55	24.6	11.7	inactive	inactive	> 16.2
